How the values were obtained:
[1] = system: spring barley; assay: Test D postemergence; format: in vivo, Hordeum vulgare; conditions: Hordeum vulgare, post-emergence, Postemergence, scale 0 to 100 (0 no effect, 100 complete control), read-out: Plant response rating, Barley, Spring
In short: (§1)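 In a controlled growth environment, treated and control plants were held 7 to 21 days, then compared visually. Damage was scored 0–100, where 100 means complete control. Sprays contained surfactant in a non-phytotoxic solvent; post-applied plants were at the 1- to 4-leaf stage.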

[2] = system: winter barley; assay: Test D postemergence; format: in vivo, Hordeum vulgare; conditions: Hordeum vulgare, post-emergence, Postemergence, scale 0 to 100 (0 no effect, 100 complete control), read-out: Plant response rating, Barley, Winter
In short: as §1

[3] = system: Italian ryegrass; assay: Test D postemergence; format: in vivo, Lolium multiflorum; conditions: Lolium multiflorum, post-emergence
In short: as §1

[4] = system: bluegrass; assay: Test D preemergence; format: in vivo, Poa annua; conditions: Poa annua, pre-emergence
In short: as §1

[5] = system: oilseed rape; assay: Test D preemergence; format: in vivo, Brassica napus; conditions: Brassica napus, pre-emergence
In short: as §1

[6] = system: galium; assay: Test D preemergence; format: in vivo, Galium aparine; conditions: Galium, pre-emergence
In short: as §1

[7] = system: wild poinsettia; assay: Test F preemergence; format: in vivo, Euphorbia heterophylla; conditions: 21 days, scale 0 to 100
In short: (§2)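 Seeds were sown in a loam soil–sand blend and treated preemergence with compounds formulated in a non-phytotoxic solvent mixture containing surfactant. Pots were kept in a greenhouse for 21 days, then visually rated against untreated controls on a 0–100 scale (0 = no effect, 100 = complete control).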

[8] = system: deadnettle; assay: Test D postemergence; format: in vivo, Lamium amplexicaule; conditions: Lamium amplexicaule, post-emergence
In short: as §1

[9] = system: field poppy; assay: Test D postemergence; format: in vivo, Papaver rhoeas; conditions: Papaver rhoeas, post-emergence
In short: as §1

[10] = system: field violet; assay: Test D postemergence; format: in vivo, Viola arvensis; conditions: Viola arvensis, post-emergence, scale 0 to 100 (0 no effect, 100 complete control), read-out: Plant response rating, Field Violet
In short: as §1

[11] = system: guineagrass; assay: Test F preemergence; format: in vivo, Panicum maximum; conditions: 21 days, scale 0 to 100
In short: as §2

[12] = system: kochia; assay: Test D postemergence; format: in vivo, Kochia scoparia; conditions: Bassia scoparia, post-emergence
In short: as §1

[13] = system: surinam grass; assay: Test F preemergence; format: in vivo, Brachiaria decumbens; conditions: 21 days, scale 0 to 100
Excerpt: (§3) Seeds of plant species selected from bermudagrass (Cynodon dactylon), surinam grass (Brachiaria decumbens), large (Lg) crabgrass (Digitaria sanguinalis), crabgrass, naked (naked crabgrass, Digitaria nuda), foxtail, green (green foxtail, Setaria viridis), johnsongrass (Sorghum halepense), kochia (Kochia scoparia), morningglory (pitted morningglory, Ipomoea lacunosa), nutsedge, purple (purple nutsedge, Cyperus rotundus), ragweed (common ragweed, Ambrosia elatior), mustard, black (black mustard, Brassica nigra), guineagrass (Panicum maximum), dallisgrass (Paspalum dilatatum), barnyardgrass (Echinochloa crus-galli), sandbur (southern sandbur, Cenchrus echinatus), sowthistle (common sowthistle, Sonchus oleraceous), Italian ryegrass (Lolium multiflorum), signalgrass (broadleaf signalgrass, Brachiaria platyphylla), dayflower (Virginia (VA) dayflower, Commelina virginica), bluegrass (annual bluegrass, Poa annua), quackgrass (Elytrigia repens), mallow (common mallow, Malva sylvestris), buckwheat, wild (wild buckwheat, Polygonum convolvulus), leafy spurge (Euphorbia esula), chickweed (common chickweed, Stellaria media), wild poinsettia (Euphorbia heterophylla), and pigweed (Amaranthus retroflexus) were planted into a blend of loam soil and sand and treated preemergence with test chemicals formulated in a non-phytotoxic solvent mixture which included a surfactant.
(§4) Treated plants and controls were maintained in a greenhouse for 21 days, after which time all species were compared to controls and visually evaluated. Plant response ratings, summarized in Table F, are based on a scale of 0 to 100 where 0 is no effect and 100 is complete control. A dash (-) response means no test result.

[14] = system: chickweed; assay: Test F preemergence; format: in vivo, Stellaria media; conditions: 21 days, scale 0 to 100
Excerpt: as §3, §4

[15] = system: barnyardgrass; assay: Test F preemergence; format: in vivo, Echinochloa crus-galli; conditions: 21 days, scale 0 to 100
Excerpt: as §3, §4

Compound `N#Cc1cccc(Oc2ncc(Cl)cn2)c1-n1cc(OCC(F)(F)F)cn1` [Compound 274, 3-[(5-chloro-2-pyrimidinyl)oxy]-2-[4-(2,2,2-trifluoroethoxy)-1H-pyrazol-1-yl]benzonitrile] has a plant injury at 16 g/ha ([1]; 16 g ai/ha) of 20%, a plant injury at 31 g/ha ([1]; 31 g ai/ha) of 25% and a plant injury at 62 g/ha ([1]; 62 g ai/ha) of 30%. For the same compound, the plant injury at 125 g/ha ([1]; 125 g ai/ha) was 35%, the plant injury at 16 g/ha ([2]; 16 g ai/ha) was 10% and the plant injury at 31 g/ha ([2]; 31 g ai/ha) was 20%. The plant injury at 62 g/ha ([2]; 62 g ai/ha) was 25%, the plant injury at 125 g/ha ([2]; 125 g ai/ha) was 30% and the pest or weed control at 16 g/ha ([3]; 16 g ai/ha, scale 0-100, read-out: Plant response rating, Ryegrass, Italian) was 15%. The pest or weed control at 31 g/ha ([3]; 31 g ai/ha, scale 0 to 100 (0 no effect, 100 complete control), read-out: Plant response rating, Ryegrass, Italian) was 25%, the pest or weed control at 62 g/ha ([3]; 62 g ai/ha, scale 0 to 100 (0 no effect, 100 complete control), read-out: Plant response rating, Ryegrass, Italian) was 35% and the pest or weed control at 125 g/ha ([3]; 125 g ai/ha, scale 0 to 100 (0 no effect, 100 complete control), read-out: Plant response rating, Ryegrass, Italian) was 35%. For the same compound, the pest or weed control at 16 g/ha ([4]; 16 g ai/ha, scale 0 (no effect) to 100 (complete control), read-out: Plant response rating, Bluegrass) was 0%, the pest or weed control at 31 g/ha ([4]; 31 g ai/ha, scale 0-100, read-out: Plant response rating, Bluegrass) was 5% and the pest or weed control at 62 g/ha ([4]; 62 g ai/ha, scale 0-100, read-out: Plant response rating, Bluegrass) was 30%. The pest or weed control at 125 g/ha ([4]; 125 g ai/ha, scale 0-100, read-out: Plant response rating, Bluegrass) was 70%, the plant injury at 16 g/ha ([5]; 16 g ai/ha, scale 0 (no effect) to 100 (complete control), read-out: Plant response rating, Oilseed Rape) was 35% and the plant injury at 31 g/ha ([5]; 31 g ai/ha, scale 0-100, read-out: Plant response rating, Oilseed Rape) was 30%. The plant injury at 62 g/ha ([5]; 62 g ai/ha, scale 0-100, read-out: Plant response rating, Oilseed Rape) was 65%, the plant injury at 125 g/ha ([5]; 125 g ai/ha, scale 0-100, read-out: Plant response rating, Oilseed Rape) was 75% and the pest or weed control at 16 g/ha ([6]; 16 g ai/ha, scale 0 (no effect) to 100 (complete control), read-out: Plant response rating, Galium) was 0%. The pest or weed control at 31 g/ha ([6]; 31 g ai/ha, scale 0-100, read-out: Plant response rating, Galium) was 60%, the pest or weed control at 62 g/ha ([6]; 62 g ai/ha, scale 0-100, read-out: Plant response rating, Galium) was 100% and the pest or weed control at 125 g/ha ([6]; 125 g ai/ha, scale 0-100, read-out: Plant response rating, Galium) was 100%. The “Plant response rating, Poinsettia, Wild” value ([7]; 16 g ai/ha) was 5, the “Plant response rating, Poinsettia, Wild” value ([7]; 31 g ai/ha) was 10 and the “Plant response rating, Poinsettia, Wild” value ([7]; 62 g ai/ha) was 70. The “Plant response rating, Poinsettia, Wild” value ([7]; 125 g ai/ha) was 95, the “Plant response rating, Poinsettia, Wild” value ([7]; 250 g ai/ha) was 100 and the pest or weed control at 16 g/ha ([8]; 16 g ai/ha, scale 0-100, read-out: Plant response rating, Deadnettle) was 50%. For the same compound, the pest or weed control at 31 g/ha ([8]; 31 g ai/ha, scale 0 to 100 (0 no effect, 100 complete control), read-out: Plant response rating, Deadnettle) was 45%, the pest or weed control at 62 g/ha ([8]; 62 g ai/ha, scale 0 to 100 (0 no effect, 100 complete control), read-out: Plant response rating, Deadnettle) was 60% and the pest or weed control at 125 g/ha ([8]; 125 g ai/ha, scale 0 to 100 (0 no effect, 100 complete control), read-out: Plant response rating, Deadnettle) was 70%. For the same compound, the pest or weed control at 16 g/ha ([9]; 16 g ai/ha, scale 0-100, read-out: Plant response rating, Field Poppy) was 25%, the pest or weed control at 31 g/ha ([9]; 31 g ai/ha, scale 0 to 100 (0 no effect, 100 complete control), read-out: Plant response rating, Field Poppy) was 40% and the pest or weed control at 62 g/ha ([9]; 62 g ai/ha, scale 0 to 100 (0 no effect, 100 complete control), read-out: Plant response rating, Field Poppy) was 40%. The pest or weed control at 125 g/ha ([9]; 125 g ai/ha, scale 0 to 100 (0 no effect, 100 complete control), read-out: Plant response rating, Field Poppy) was 80%, the pest or weed control at 31 g/ha ([10]; 31 g ai/ha) was 75% and the pest or weed control at 62 g/ha ([10]; 62 g ai/ha) was 70%. The pest or weed control at 125 g/ha ([10]; 125 g ai/ha) was 85%, the “Plant response rating, Guineagrass” value ([11]; 16 g ai/ha) was 100 and the “Plant response rating, Guineagrass” value ([11]; 31 g ai/ha) was 100. For the same compound, the “Plant response rating, Guineagrass” value ([11]; 62 g ai/ha) was 100, the “Plant response rating, Guineagrass” value ([11]; 125 g ai/ha) was 100 and the “Plant response rating, Guineagrass” value ([11]; 250 g ai/ha) was 100. The pest or weed control at 16 g/ha ([12]; 16 g ai/ha, scale 0-100, read-out: Plant response rating, Kochia) was 60%, the pest or weed control at 31 g/ha ([12]; 31 g ai/ha, scale 0 to 100 (0 no effect, 100 complete control), read-out: Plant response rating, Kochia) was 70% and the pest or weed control at 62 g/ha ([12]; 62 g ai/ha, scale 0 to 100 (0 no effect, 100 complete control), read-out: Plant response rating, Kochia) was 90%. For the same compound, the pest or weed control at 125 g/ha ([12]; 125 g ai/ha, scale 0 to 100 (0 no effect, 100 complete control), read-out: Plant response rating, Kochia) was 95%, the “Plant response rating, Surinam Grass” value ([13]; 16 g ai/ha) was 10 and the “Plant response rating, Surinam Grass” value ([13]; 31 g ai/ha) was 35. For the same compound, the “Plant response rating, Surinam Grass” value ([13]; 62 g ai/ha) was 70, the “Plant response rating, Surinam Grass” value ([13]; 125 g ai/ha) was 100 and the “Plant response rating, Surinam Grass” value ([13]; 250 g ai/ha) was 100. The “Plant response rating, Chickweed” value ([14]; 16 g ai/ha) was 98, the “Plant response rating, Chickweed” value ([14]; 31 g ai/ha) was 98 and the “Plant response rating, Chickweed” value ([14]; 62 g ai/ha) was 100. For the same compound, the “Plant response rating, Chickweed” value ([14]; 125 g ai/ha) was 100, the “Plant response rating, Chickweed” value ([14]; 250 g ai/ha) was 100 and the “Plant response rating, Barnyardgrass” value ([15]; 16 g ai/ha) was 75. The “Plant response rating, Barnyardgrass” value ([15]; 31 g ai/ha) was 100, the “Plant response rating, Barnyardgrass” value ([15]; 62 g ai/ha) was 100 and the “Plant response rating, Barnyardgrass” value ([15]; 125 g ai/ha) was 100. For the same compound, the “Plant response rating, Barnyardgrass” value ([15]; 250 g ai/ha) was 100.

From US9695155B2, “Herbicidal substituted pyrimidinyloxy benzene compounds” (E. I. DU PONT DE NEMOURS AND COMPANY, priority 2013, dated 2017)
